pKi: −log10 of the molar value.
Tests used:
Set-up in all cases: purchased Milipore (Millipore)
[1] = target: T1, Human adrenergic α2B receptor (Homo sapiens, UniProt P18089); assay: Radioligand binding, adrenergic α2B (Protocol Group B); settings: Protocol Group B; for Percentage inhibition of ligand binding, Adrenergic α2B (10 nM): 0.01 µM; for Percentage inhibition of ligand binding, Adrenergic α2B (30 nM) / inhibition at 0.03 µM: 30 nM compound; for Percentage inhibition of ligand binding, Adrenergic α2B (30 nM): 0.03 µM; for pKi: estimated Ki, read-out: Ki α2B; for inhibition at 0.03 µM: read-out: Percentage inhibition of ligand binding, Adrenergic α2B (30 nM)
T1 sequence (P18089 1-450): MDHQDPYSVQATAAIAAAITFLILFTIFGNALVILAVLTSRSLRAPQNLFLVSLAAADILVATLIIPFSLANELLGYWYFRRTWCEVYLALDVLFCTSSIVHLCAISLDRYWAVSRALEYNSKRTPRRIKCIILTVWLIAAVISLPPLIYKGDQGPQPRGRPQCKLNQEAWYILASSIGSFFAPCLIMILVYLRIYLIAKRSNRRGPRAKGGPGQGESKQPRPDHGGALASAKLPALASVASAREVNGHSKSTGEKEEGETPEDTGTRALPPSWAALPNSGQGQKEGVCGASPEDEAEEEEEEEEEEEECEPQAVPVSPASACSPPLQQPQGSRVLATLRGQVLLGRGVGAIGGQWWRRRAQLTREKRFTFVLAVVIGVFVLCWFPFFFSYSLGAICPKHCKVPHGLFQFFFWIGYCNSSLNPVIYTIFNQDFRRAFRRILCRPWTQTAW
Summary of the method: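 Compounds at various concentrations in 1% DMSO were tested on recombinant membranes in Tris-HCl pH 7.4 buffer containing MgCl2, CaCl2 and 0.2% BSA.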

[2] = target: T2, Human adrenergic α2A receptor (Homo sapiens, UniProt P08913); assay: Radioligand binding, adrenergic α2A (Protocol Group B); settings: Protocol Group B; for Percentage inhibition of ligand binding, Adrenergic α2A (0.1 μM) / inhibition at 0.1 µM: 0.1 μM compound; for pKi: estimated Ki; for inhibition at 0.1 µM: read-out: Percentage inhibition of ligand binding, Adrenergic α2A (0.1 μM)
T2 sequence (P08913 1-465): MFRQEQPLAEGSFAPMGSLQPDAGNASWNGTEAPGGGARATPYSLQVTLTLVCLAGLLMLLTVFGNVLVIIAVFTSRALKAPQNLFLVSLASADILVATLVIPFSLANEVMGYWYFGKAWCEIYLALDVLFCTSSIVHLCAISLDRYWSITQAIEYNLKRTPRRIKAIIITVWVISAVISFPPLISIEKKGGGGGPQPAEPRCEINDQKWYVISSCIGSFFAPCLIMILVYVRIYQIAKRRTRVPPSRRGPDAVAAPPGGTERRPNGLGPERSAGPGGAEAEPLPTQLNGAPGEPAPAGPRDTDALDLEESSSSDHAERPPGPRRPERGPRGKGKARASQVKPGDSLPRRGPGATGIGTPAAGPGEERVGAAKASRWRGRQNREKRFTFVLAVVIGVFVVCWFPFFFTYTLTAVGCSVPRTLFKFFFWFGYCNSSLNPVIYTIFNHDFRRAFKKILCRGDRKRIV
Summary of the method: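 Compounds (1% DMSO vehicle, various concentrations) competed against 2 nM [^3H]MK-912 on recombinant receptor membranes for 60 min at 25° C, Tris-HCl pH 7.4 buffer with Mg2+, Ca2+, BSA. Bound radioligand filtered and counted; 10 μM rauwolscine set nonspecific binding. Values: percent inhibition of specific binding or estimated Ki.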

[3] = target: T3, Human adrenergic α1B receptor (Homo sapiens, UniProt P35368); assay: Radioligand binding, adrenergic α1B (Protocol Group B); settings: Protocol Group B; for Percentage inhibition of ligand binding, Adrenergic α1B (0.1 μM) / inhibition at 0.1 µM: 0.1 μM compound; for pKi: estimated Ki; for inhibition at 0.1 µM: read-out: Percentage inhibition of ligand binding, Adrenergic α1B (0.1 μM); for inhibition at 0.3 µM: read-out: Percentage inhibition of ligand binding, Adrenergic α1B (0.3 μM)
T3 sequence (P35368 1-520): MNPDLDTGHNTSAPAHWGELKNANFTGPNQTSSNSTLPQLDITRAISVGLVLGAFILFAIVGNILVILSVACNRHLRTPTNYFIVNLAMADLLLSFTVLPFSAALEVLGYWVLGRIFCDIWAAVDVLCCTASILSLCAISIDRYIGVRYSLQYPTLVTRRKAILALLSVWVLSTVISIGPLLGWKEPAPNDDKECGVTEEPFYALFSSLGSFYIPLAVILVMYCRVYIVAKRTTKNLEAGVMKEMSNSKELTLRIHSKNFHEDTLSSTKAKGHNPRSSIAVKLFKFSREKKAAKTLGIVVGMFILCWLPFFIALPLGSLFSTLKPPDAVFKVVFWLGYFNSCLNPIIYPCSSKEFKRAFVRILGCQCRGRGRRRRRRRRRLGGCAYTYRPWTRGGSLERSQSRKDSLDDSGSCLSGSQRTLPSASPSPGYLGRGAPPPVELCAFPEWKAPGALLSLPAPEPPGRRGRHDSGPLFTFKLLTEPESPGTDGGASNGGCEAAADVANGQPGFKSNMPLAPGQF
Summary of the method: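 Values are percent inhibition of specific [3H]prazosin (0.3 nM) binding or estimated Ki, from filtration counting. Human α1B recombinant membranes, Tris-HCl pH 7.4 buffer with MgCl2 and EDTA, 60 min at 25 °C, 1% DMSO vehicle; 10 μM prazosin defined nonspecific binding.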

Percentage inhibition of ligand binding, Adrenergic α2B (10 nM) ([1]; 10 nM compound) [%] | Percentage inhibition of ligand binding, Adrenergic α2B (30 nM) [1] [%] | Percentage inhibition of ligand binding, Adrenergic α2B (0.1 μM) ([1]; 0.1 μM compound, 0.1 µM) [%] | pKi [1] | Percentage inhibition of ligand binding, Adrenergic α2A (0.1 μM) [2] [%] | Percentage inhibition of ligand binding, Adrenergic α2A (0.3 μM) ([2]; 0.3 μM compound) [%] | pKi [2] | Percentage inhibition of ligand binding, Adrenergic α1B (0.1 μM) [3] [%] | Percentage inhibition of ligand binding, Adrenergic α1B (0.3 μM) ([3]; 0.3 μM compound, 0.3 µM) [%] | pKi [3] | inhibition at 0.01 µM ([1]; 10 nM compound, read-out: Percentage inhibition of ligand binding, Adrenergic α2B (10 nM)) [%] | inhibition at 0.03 µM [1] [%] | inhibition at 0.1 µM ([1]; 0.1 μM compound, read-out: Percentage inhibition of ligand binding, Adrenergic α2B (0.1 μM)) [%] | inhibition at 0.1 µM [2] [%] | inhibition at 0.3 µM ([2]; 0.3 μM compound, read-out: Percentage inhibition of ligand binding, Adrenergic α2A (0.3 μM)) [%] | inhibition at 0.1 µM [3] [%] | inhibition at 0.3 µM ([3]; 0.3 μM compound) [%] | SMILES
98 | 98 | 100 | 9.09 | 89 | 98 | 8.21 | 69 | 85 | 7.85 | – | – | – | – | – | – | – | Cc1cc(C)c2c(c1)c1c(n2CC(C)(O)c2cccnc2)CCN2CCCC12 (single isomer, unassigned) [44b]
– | – | – | 8.66 | – | – | 6.55 | – | – | 6.84 | 72 | 90 | 96 | 33 | 48 | 24 | 47 | CC(O)(Cn1c2c(c3cc(F)ccc31)C1CCCN1CC2)c1ccncc1 (single isomer, unassigned) [31a]
– | 104 | – | – | 96 | – | – | 99 | – | – | – | 97 | – | 90 | – | 94 | – | Cc1ccc2c(c1)c1c(n2CC(O)c2ccncc2)CCN2CCCC12 (single isomer, unassigned) [Compound No. 178d]
83 | – | – | 8.82 | 56 | 79 | 7.36 | – | – | 7.82 | – | 96 | – | – | – | 58 | 85 | Cc1cc(F)c2c(c1)c1c(n2CC(O)c2ccncc2)CCN2CCCC12 (single isomer, unassigned) [137a]

Reference: US20150315188A1, “COMPOUNDS AND METHODS FOR TREATMENT OF HYPERTENSION” (MEDIVATION TECHNOLOGIES, INC., priority 2012, published 2015)
